According to ChEMBL document CHEMBL1773045, “Conjugate (MTC-220) of muramyl dipeptide analogue and paclitaxel prevents both tumor growth and metastasis in mice” (J Med Chem, 2011):
Activity calls are given as the source filed them. The calls are words filed in the database; no cut-off is given here.

Columns and labels:
UO-31 = assay: Growth inhibition of human UO31 cells after 48 hrs by sulforhodamine B assay; type: functional; details: UO-31, 48 h
A2780 = assay: Antitumor activity against human A2780 cells xenografted in nu/nu BALB/c mouse assessed as tumor growth inhibition at 30 mg/kg, ip qd for 12 days measured on day 25 relative to control; type: functional; details: route intraperitoneal, read-out: GI
A549 = assay: Antitumor activity against human A549 cells xenografted in nu/nu BALB/c mouse assessed as tumor growth inhibition at 30 mg/kg, ip qd for 12 days measured on day 25 relative to control; type: functional; details: route intraperitoneal, read-out: GI
4T1 [1] = assay: Antitumor activity against mouse 4T1 cells xenografted in […] mouse assessed as tumor growth inhibition at 5 mg/kg, ip qd for 28 days relative to control; type: functional; details: 4T1, ip, 672 h, route intraperitoneal, read-out: GI
MDA-MB-468 = assay: Growth inhibition of human MDA-MB-468 cells after 48 hrs by sulforhodamine B assay; type: functional; details: MDA-MB-468, 48 h
4T1 [2] = assay: Antimetastatic activity against mouse 4T1 cells xenografted in […] mouse assessed as inhibition of lung metastasis at 2.5 to 10 mg/kg, ip qd for 28 days; type: functional, organism-based
SNB-19 = assay: Growth inhibition of human SNB19 cells after 48 hrs by sulforhodamine B assay; type: functional; details: SNB-19, 48 h
UACC-62 = assay: Growth inhibition of human UACC62 cells after 48 hrs by sulforhodamine B assay; type: functional; details: UACC-62, 48 h
OVCAR-8 = assay: Growth inhibition of human OVCAR8 cells after 48 hrs by sulforhodamine B assay; type: functional; details: OVCAR-8, 48 h
HOP-92 = assay: Growth inhibition of human HOP92 cells after 48 hrs by sulforhodamine B assay; type: functional; details: HOP-92, 48 h
HT-29 = assay: Growth inhibition of human HT-29 cells after 48 hrs by sulforhodamine B assay; type: functional; details: HT-29, 48 h
SW-620 = assay: Growth inhibition of human SW620 cells after 48 hrs by sulforhodamine B assay; type: functional; details: SW-620, 48 h
[3] = Growth inhibition of human Hs 578T cells after 48 hrs by sulforhodamine B assay; type: functional
Mus musculus [4] = assay: Toxicity in human cancer cells xenografted in nu/nu BALB/c mouse assessed as mortality at 5 to 30 mg/kg, ip qd for 24 days; type: organism-based, Cancer cell lines; set-up: dose 5-30 mg/kg, route intraperitoneal; details: in vivo, 576 h
Mus musculus [5] = assay: Toxicity in mouse 4T1 cells xenografted […] mouse assessed as decrease in body weight at 2.5 to 10 mg/kg, ip qd for 28 days; type: organism-based; set-up: dose 2.5-10 mg/kg, route intraperitoneal; details: in vivo, 672 h
SK-OV-3 = assay: Growth inhibition of human SKOV3 cells after 48 hrs by sulforhodamine B assay; type: functional; details: SK-OV-3, 48 h
MDA-MB-231 = assay: Antitumor activity against human MDA-MB-231 cells xenografted in nu/nu BALB/c mouse assessed as tumor growth inhibition at 10 mg/kg, ip qd for 24 days measured on day 25 relative to control; type: functional; details: MDA-MB-231, ip, route intraperitoneal, read-out: GI
SF-295 = assay: Growth inhibition of human SF295 cells after 48 hrs by sulforhodamine B assay; type: functional; details: SF-295, 48 h
Mus musculus [6] = assay: Antimetastatic activity against mouse 4T1 cells xenografted in BALB/c mouse assessed as reduction of myeloid derived suppressor cells accumulation in spleen at 5 mg/kg, ip qd for 23 days by flow cytometry analysis relative to control; type: functional; set-up: scale not given: the % may be the effect or the level left; details: route intraperitoneal
SN12C = assay: Growth inhibition of human SN12C cells after 48 hrs by sulforhodamine B assay; type: functional
[7] = test system: Lewis lung carcinoma cell line; assay: Antimetastatic activity against mouse LLC cells xenografted in C57BL/6 mouse assessed as inhibition of lung metastasis at 10 mg/kg, ip qd for 15 days relative to control; type: functional; details: 360 h, route intraperitoneal, read-out: GI
NCI-H460 [8] = assay: Growth inhibition of human NCI-H460 cells after 48 hrs by sulforhodamine B assay; type: functional; details: NCI-H460, 48 h
M14 = assay: Growth inhibition of human M14 cells after 48 hrs by sulforhodamine B assay; type: functional; details: M14, 48 h
NCI-H460 [9] = assay: Antitumor activity against human H460 cells xenografted in nu/nu BALB/c mouse assessed as tumor growth inhibition at 20 mg/kg, ip qd for 24 days measured on day 25 relative to control; type: functional; details: route intraperitoneal, read-out: GI
OVCAR-5 = assay: Growth inhibition of human OVCAR5 cells after 48 hrs by sulforhodamine B assay; type: functional; details: OVCAR-5, 48 h
NCI-H322M = assay: Growth inhibition of human NCI-H322M cells after 48 hrs by sulforhodamine B assay; type: functional
NCI/ADR-RES = assay: Growth inhibition of human NCI/ADR-RES cells after 48 hrs by sulforhodamine B assay; type: functional
Mus musculus [10] = assay: Antimetastatic activity against mouse 4T1 cells xenografted in BALB/c mouse assessed as reduction of TGFbeta mRNA expression in tumor at 5 mg/kg, ip qd for 23 days by RT-PCR analysis; type: functional, organism-based; set-up: dose 5 mg/kg
[11] = Growth inhibition of human […] cells after 48 hrs by sulforhodamine B assay; type: functional
Mus musculus [12] = assay: Toxicity in human cancer cells xenografted in nu/nu BALB/c mouse assessed as body weight loss at 5 to 30 mg/kg, ip qd for 24 days; type: organism-based, Cancer cell lines; set-up: dose 5-30 mg/kg, route intraperitoneal; details: in vivo, 576 h
T47D = assay: Growth inhibition of human T47D cells after 48 hrs by sulforhodamine B assay; type: functional
ACHN = assay: Growth inhibition of human ACHN cells after 48 hrs by sulforhodamine B assay; type: functional
LOX IMVI = assay: Growth inhibition of human LOXIMVI cells after 48 hrs by sulforhodamine B assay; type: functional
Mus musculus [13] = assay: Antimetastatic activity against mouse 4T1 cells xenografted in BALB/c mouse assessed as reduction of MMP9 mRNA expression in tumor at 5 mg/kg, ip qd for 23 days by RT-PCR analysis; type: functional, organism-based; set-up: dose 5 mg/kg
IGROV-1 = assay: Growth inhibition of human IGROV1 cells after 48 hrs by sulforhodamine B assay; type: functional; details: IGROV-1, 48 h
KM12 = assay: Growth inhibition of human KM12 cells after 48 hrs by sulforhodamine B assay; type: functional; details: KM12, 48 h
SR = assay: Growth inhibition of human SR cells after 48 hrs by sulforhodamine B assay; type: functional
K562 = assay: Growth inhibition of human K562 cells after 48 hrs by sulforhodamine B assay; type: functional; details: K562, 48 h
NCI-H23 = assay: Growth inhibition of human NCI-H23 cells after 48 hrs by sulforhodamine B assay; type: functional; details: NCI-H23, 48 h
[14] = Antitumor activity against human ES2 cells xenografted in nu/nu BALB/c mouse assessed as tumor growth inhibition at 30 mg/kg, ip qd for 12 days measured on day 21 relative to control; type: functional; details: ES-2, ip, route intraperitoneal, read-out: GI
MDA-MB-435 = assay: Growth inhibition of human MDA-MB-435 cells after 48 hrs by sulforhodamine B assay; type: functional; details: MDA-MB-435, 48 h

CC(=O)O[C@H]1C(=O)[C@@]2(C)[C@H]([C@H](OC(=O)c3ccccc3)[C@]3(O)C[C@H](OC(=O)[C@H](OC(=O)CCC(=O)NCCCC[C@H](NC(=O)CC[C@H](NC(=O)[C@H](C)NC(=O)/C=C/c4ccc(Cl)cc4)C(N)=O)C(N)=O)[C@H](NC(=O)c4ccccc4)c4ccccc4)C(C)=C1C3(C)C)[C@]1(OC(C)=O)CO[C@@H]1C[C@@H]2O
GI50 (UO-31): < 10 nM | inhibition in vivo at 30 mg/kg (A2780): 45.2% | inhibition in vivo at 30 mg/kg (A549): 79.9% | inhibition in vivo at 5 mg/kg (4T1 [1]): 33.5% | GI50 (MDA-MB-468): < 10 nM | growth inhibition (GI) (4T1 [2]): Active | GI50 (SNB-19): < 10 nM | GI50 (UACC-62): < 10 nM | GI50 (OVCAR-8): < 10 nM | GI50 (HOP-92): < 10 nM | GI50 (HT-29): < 10 nM | GI50 (SW-620): < 10 nM | GI50 [3]: < 10 nM | Activity (Mus musculus [4]): Non-toxic | Activity (Mus musculus [5]): Non-toxic | GI50 (SK-OV-3): < 10 nM | inhibition in vivo at 10 mg/kg (MDA-MB-231): 37.3% | GI50 (SF-295): < 10 nM | Activity (Mus musculus [6]): 22% | GI50 (SN12C): < 10 nM | inhibition in vivo at 10 mg/kg [7]: 47.4% | GI50 (NCI-H460 [8]): < 10 nM | GI50 (M14): < 10 nM | inhibition in vivo at 20 mg/kg (NCI-H460 [9]): 52.9% | GI50 (OVCAR-5): < 10 nM | GI50 (NCI-H322M): < 10 nM | GI50 (NCI/ADR-RES): < 10 nM | Activity (Mus musculus [10]): Active | GI50 [11]: < 10 nM | Activity (Mus musculus [12]): Non-toxic | GI50 (T47D): < 10 nM | GI50 (ACHN): < 10 nM | GI50 (LOX IMVI): < 10 nM | Activity (Mus musculus [13]): Active | GI50 (IGROV-1): < 10 nM | GI50 (KM12): < 10 nM | GI50 (SR): < 10 nM | GI50 (K562): < 10 nM | GI50 (NCI-H23): < 10 nM | inhibition in vivo at 30 mg/kg [14]: 36.4% | GI50 (MDA-MB-435): < 10 nM
